Data: ChEMBL document CHEMBL4665723, “Evaluation of the effect of synthetic compounds derived from azidothymidine on MDA-MB-231 type breast cancer cells” (Bioorg Med Chem Lett, 2020)
Calls of active or inactive are those of the source. No cut-off for these calls is given here.

Key:
[1] = tested on: MDA-MB-231; assay: Antiproliferative activity against human MDA-MB-231 cells assessed as inhibition of cell growth at >25 uM incubated for 24 hrs by MTT assay relative to control; assay type: functional; settings: dose microM >25
[2] = tested on: MDA-MB-231; assay: Antiproliferative activity against human MDA-MB-231 cells incubated for 24 hrs by MTT assay; assay type: functional, cell-based; settings: MDA-MB-231, 24 h
[3] = tested on: MDA-MB-231; assay: Induction of cell cycle arrest in human MDA-MB-231 cells assessed as accumulation in S phase at 12.5 uM incubated for 48 hrs by PI staining based flow cytometric analysis (reference value: 19.35%); assay type: functional
[4] = tested on: MDA-MB-231; assay: Induction of apoptosis in human MDA-MB-231 cells assessed as early apoptotic cells at 12.5 uM incubated for 48 hrs by AnnexinV and 7AAD staining based flow cytometric analysis; assay type: functional, cell-based
[5] = tested on: 5637; assay: Antiproliferative activity against human 5637 cells assessed as inhibition of cell growth incubated for 24 hrs by MTT assay; assay type: functional, cell-based; settings: Homo sapiens, 5637, 24 h
[6] = tested on: MDA-MB-231; assay: Induction of cell cycle arrest in human MDA-MB-231 cells assessed as accumulation in G2/M phase at 12.5 uM incubated for 48 hrs by PI staining based flow cytometric analysis (reference value: 19.7%); assay type: functional
[7] = tested on: MDA-MB-231; assay: Antiproliferative activity against human MDA-MB-231 cells at >12.5 uM incubated for 48 hrs by MTT assay; assay type: functional, cell-based; settings: dose microM >12.5, time 48.0 hrs
[8] = tested on: MDA-MB-231; assay: Induction of apoptosis in human MDA-MB-231 cells assessed as late apoptotic cells at 12.5 uM incubated for 48 hrs by AnnexinV and 7AAD staining based flow cytometric analysis; assay type: functional, cell-based
[9] = tested on: MDA-MB-231; assay: Antiproliferative activity against human MDA-MB-231 cells incubated for 48 hrs by MTT assay; assay type: functional, cell-based; settings: MDA-MB-231, 48 h
[10] = tested on: MDA-MB-231; assay: Induction of cell cycle arrest in human MDA-MB-231 cells assessed as accumulation in G0/G1 phase at 12.5 uM incubated for 48 hrs by PI staining based flow cytometric analysis (reference value: 51.75%); assay type: functional
[11] = tested on: MDA-MB-231; assay: Antiproliferative activity against human MDA-MB-231 cells at 6.25 to 100 uM incubated for 24 to 48 hrs by MTT assay; assay type: functional, cell-based; settings: dose microM 6.25-100, time hrs 24-48
[12] = tested on: MCF7; assay: Antiproliferative activity against human MCF7 cells assessed as inhibition of cell growth; assay type: functional, cell-based

Compound	inhibition (INH) [1]	IC50 [2]	Activity [3]	Activity [4]	IC50 [5]	Activity [6]	Activity [7]	Activity [8]	IC50 [9]	Activity [10]	Activity [11]	IC50 [12]
Cc1cn([C@H]2C[C@H](n3cc(CO)nn3)[C@@H](C[Te]c3ccccc3)O2)c(=O)[nH]c1=O	50%	24.9 µM	27.3%	inactive	8.09 µM	16.9%	Active	inactive	11.8 µM	40.55%		
Cc1cn([C@H]2C[C@H](N=[N+]=[N-])[C@@H](CO)O2)c(=O)[nH]c1=O											inactive	
CNCCC(Oc1ccc(C(F)(F)F)cc1)c1ccccc1 (configuration not stated) [FLUOXETINE]												0.01 µM
Cc1cn([C@H]2C[C@H](n3cc(CCCO)nn3)[C@@H](C[Te]c3ccccc3)O2)c(=O)[nH]c1=O	50%	21.6 µM	28.2%	inactive	1.99 µM	19.95%	Active	inactive	9.62 µM	44.9%		
